Data taken from patent US20230049952A1, “METHODS AND COMPOUNDS FOR RESTORING MUTANT P53 FUNCTION” (PMV Pharmaceuticals, Inc., priority 2020, published 2023).

Tested on: p53 signaling pathway in MT373 tumors
Assay: MT373 syngeneic sarcoma model: mouse p53 signaling pathway profiling panel
Type: in vivo
Settings: MT373 tumors

Compound: CCn1c(C#CCNc2ccccc2)cc2cc(CNC3CCN(C)CC3)ccc21 [Compound 1, 1-Anilino-3-{1-ethyl-5-[(1-methyl-4-piperidylamino)methyl]-1H-indol-2-yl}-2-propyne]
- Wt1 mRNA, Fold Increase Over Vehicle Control or Percent Reduction Compared to Vehicle Control (%) (75 mg/kg BIDx1, 72 h): 23.33 fold or %
- Zmat3 mRNA, Fold Increase Over Vehicle Control or Percent Reduction Compared to Vehicle Control (%) (75 mg/kg BIDx1, 72 h): 1.10 fold or %
- Actb* mRNA (housekeeping or reference gene), Fold Increase Over Vehicle Control or Percent Reduction Compared to Vehicle Control (%) (150 mg/kg BIDx1, 8 h): 1.00 fold or %
- B2m* mRNA (housekeeping or reference gene), Fold Increase Over Vehicle Control or Percent Reduction Compared to Vehicle Control (%) (150 mg/kg BIDx1, 8 h): 1.05 fold or %
- Gapdh* mRNA (housekeeping or reference gene), Fold Increase Over Vehicle Control or Percent Reduction Compared to Vehicle Control (%) (150 mg/kg BIDx1, 8 h): 1.02 fold or %
- Gusb* mRNA (housekeeping or reference gene), Fold Increase Over Vehicle Control or Percent Reduction Compared to Vehicle Control (%) (150 mg/kg BIDx1, 8 h): 1.02 fold or %
- Hsp90ab1* mRNA (housekeeping or reference gene), Fold Increase Over Vehicle Control or Percent Reduction Compared to Vehicle Control (%) (150 mg/kg BIDx1, 8 h): 9.13 fold or %
- MGDC* (housekeeping or reference gene), Fold Increase Over Vehicle Control or Percent Reduction Compared to Vehicle Control (%) (150 mg/kg BIDx1, 8 h): 1.00 fold or %
- Trp63 mRNA, Fold Increase Over Vehicle Control or Percent Reduction Compared to Vehicle Control (%) (150 mg/kg BIDx1, 8 h): 1.02 fold or %
- Trp73 mRNA, Fold Increase Over Vehicle Control or Percent Reduction Compared to Vehicle Control (%) (150 mg/kg BIDx1, 8 h): 1.00 fold or %
- Wt1 mRNA, Fold Increase Over Vehicle Control or Percent Reduction Compared to Vehicle Control (%) (150 mg/kg BIDx1, 8 h): 30.29 fold or %
- Zmat3 mRNA, Fold Increase Over Vehicle Control or Percent Reduction Compared to Vehicle Control (%) (150 mg/kg BIDx1, 8 h): 6.69 fold or %
- Actb* mRNA (housekeeping or reference gene), Fold Increase Over Vehicle Control or Percent Reduction Compared to Vehicle Control (%) (150 mg/kg BIDx1, 24 h): 1.11 fold or %
- B2m* mRNA (housekeeping or reference gene), Fold Increase Over Vehicle Control or Percent Reduction Compared to Vehicle Control (%) (150 mg/kg BIDx1, 24 h): 1.11 fold or %
- Gapdh* mRNA (housekeeping or reference gene), Fold Increase Over Vehicle Control or Percent Reduction Compared to Vehicle Control (%) (150 mg/kg BIDx1, 24 h): 14.16 fold or %
- Gusb* mRNA (housekeeping or reference gene), Fold Increase Over Vehicle Control or Percent Reduction Compared to Vehicle Control (%) (150 mg/kg BIDx1, 24 h): 1.25 fold or %
- Hsp90ab1* mRNA (housekeeping or reference gene), Fold Increase Over Vehicle Control or Percent Reduction Compared to Vehicle Control (%) (150 mg/kg BIDx1, 24 h): 24.42 fold or %
- MGDC* (housekeeping or reference gene), Fold Increase Over Vehicle Control or Percent Reduction Compared to Vehicle Control (%) (150 mg/kg BIDx1, 24 h): 1.00 fold or %
- Trp63 mRNA, Fold Increase Over Vehicle Control or Percent Reduction Compared to Vehicle Control (%) (150 mg/kg BIDx1, 24 h): 1.00 fold or %
- Trp73 mRNA, Fold Increase Over Vehicle Control or Percent Reduction Compared to Vehicle Control (%) (150 mg/kg BIDx1, 24 h): 1.00 fold or %
- Wt1 mRNA, Fold Increase Over Vehicle Control or Percent Reduction Compared to Vehicle Control (%) (150 mg/kg BIDx1, 24 h): 21.51 fold or %
- Zmat3 mRNA, Fold Increase Over Vehicle Control or Percent Reduction Compared to Vehicle Control (%) (150 mg/kg BIDx1, 24 h): 6.17 fold
- Actb* mRNA (housekeeping or reference gene), Fold Increase Over Vehicle Control or Percent Reduction Compared to Vehicle Control (%) (150 mg/kg BIDx1, 48 h): 1.04 fold or %
- B2m* mRNA (housekeeping or reference gene), Fold Increase Over Vehicle Control or Percent Reduction Compared to Vehicle Control (%) (150 mg/kg BIDx1, 48 h): 1.20 fold or %
- Gapdh* mRNA (housekeeping or reference gene), Fold Increase Over Vehicle Control or Percent Reduction Compared to Vehicle Control (%) (150 mg/kg BIDx1, 48 h): 27.30 fold or %
- Gusb* mRNA (housekeeping or reference gene), Fold Increase Over Vehicle Control or Percent Reduction Compared to Vehicle Control (%) (150 mg/kg BIDx1, 48 h): 1.39 fold or %
- Hsp90ab1* mRNA (housekeeping or reference gene), Fold Increase Over Vehicle Control or Percent Reduction Compared to Vehicle Control (%) (150 mg/kg BIDx1, 48 h): 19.96 fold or %
- MGDC* (housekeeping or reference gene), Fold Increase Over Vehicle Control or Percent Reduction Compared to Vehicle Control (%) (150 mg/kg BIDx1, 48 h): 1.00 fold or %
- Trp63 mRNA, Fold Increase Over Vehicle Control or Percent Reduction Compared to Vehicle Control (%) (150 mg/kg BIDx1, 48 h): 1.00 fold or %
- Trp73 mRNA, Fold Increase Over Vehicle Control or Percent Reduction Compared to Vehicle Control (%) (150 mg/kg BIDx1, 48 h): 1.00 fold or %
- Wt1 mRNA, Fold Increase Over Vehicle Control or Percent Reduction Compared to Vehicle Control (%) (150 mg/kg BIDx1, 48 h): 21.51 fold or %
- Zmat3 mRNA, Fold Increase Over Vehicle Control or Percent Reduction Compared to Vehicle Control (%) (150 mg/kg BIDx1, 48 h): 1.36 fold or %
- Actb* mRNA (housekeeping or reference gene), Fold Increase Over Vehicle Control or Percent Reduction Compared to Vehicle Control (%) (150 mg/kg BIDx1, 72 h): 1.04 fold or %
- B2m* mRNA (housekeeping or reference gene), Fold Increase Over Vehicle Control or Percent Reduction Compared to Vehicle Control (%) (150 mg/kg BIDx1, 72 h): 1.18 fold or %
- Gapdh* mRNA (housekeeping or reference gene), Fold Increase Over Vehicle Control or Percent Reduction Compared to Vehicle Control (%) (150 mg/kg BIDx1, 72 h): 19.69 fold or %
- Gusb* mRNA (housekeeping or reference gene), Fold Increase Over Vehicle Control or Percent Reduction Compared to Vehicle Control (%) (150 mg/kg BIDx1, 72 h): 1.27 fold or %
- Hsp90ab1* mRNA (housekeeping or reference gene), Fold Increase Over Vehicle Control or Percent Reduction Compared to Vehicle Control (%) (150 mg/kg BIDx1, 72 h): 1.00 fold or %
- MGDC* (housekeeping or reference gene), Fold Increase Over Vehicle Control or Percent Reduction Compared to Vehicle Control (%) (150 mg/kg BIDx1, 72 h): 1.53 fold or %
- Trp63 mRNA, Fold Increase Over Vehicle Control or Percent Reduction Compared to Vehicle Control (%) (150 mg/kg BIDx1, 72 h): 1.67 fold or %
- Trp73 mRNA, Fold Increase Over Vehicle Control or Percent Reduction Compared to Vehicle Control (%) (150 mg/kg BIDx1, 72 h): 1.00 fold or %
- Wt1 mRNA, Fold Increase Over Vehicle Control or Percent Reduction Compared to Vehicle Control (%) (150 mg/kg BIDx1, 72 h): 21.51 fold or %
- Zmat3 mRNA, Fold Increase Over Vehicle Control or Percent Reduction Compared to Vehicle Control (%) (150 mg/kg BIDx1, 72 h): 1.21 fold or %
